This assay concerns the target T1, TESK1 (Homo sapiens, UniProt Q15569).
T1 construct: made in house; host or cells: E. coli BL21-derived host (T7 phage) or HEK-293
The experiment in a line: Kinase-tagged phage competition binding assay (qPCR), 382-kinase library. Background: In qPCR the cycle at which signal appears reflects the starting amount.

Each structure is given as a SMILES string. Some results are limits rather than exact numbers.

T1 sequence (Q15569 whole entry): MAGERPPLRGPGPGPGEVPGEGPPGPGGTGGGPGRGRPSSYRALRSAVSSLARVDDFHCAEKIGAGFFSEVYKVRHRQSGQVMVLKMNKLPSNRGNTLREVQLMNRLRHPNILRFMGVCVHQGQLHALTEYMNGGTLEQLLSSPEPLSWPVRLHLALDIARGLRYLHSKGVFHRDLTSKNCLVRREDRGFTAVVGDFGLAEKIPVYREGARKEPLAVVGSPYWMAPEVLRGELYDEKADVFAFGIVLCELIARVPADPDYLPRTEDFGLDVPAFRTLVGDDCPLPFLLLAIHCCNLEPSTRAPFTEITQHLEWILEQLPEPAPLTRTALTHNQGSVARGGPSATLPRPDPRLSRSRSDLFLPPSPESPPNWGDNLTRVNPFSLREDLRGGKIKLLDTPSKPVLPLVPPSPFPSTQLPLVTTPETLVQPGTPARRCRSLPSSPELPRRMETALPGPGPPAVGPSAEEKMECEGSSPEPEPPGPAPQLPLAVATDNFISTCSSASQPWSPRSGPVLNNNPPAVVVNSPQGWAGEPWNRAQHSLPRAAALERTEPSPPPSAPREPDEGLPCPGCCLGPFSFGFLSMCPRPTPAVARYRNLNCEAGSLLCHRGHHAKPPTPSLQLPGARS

With `Nc1nc(N2CCN(C(=O)COc3ccc(Cl)cc3)CC2)c2nc(-c3cccnc3)sc2n1` [formula (1), 5-amino-7-[4-(4-chlorophenoxyacetyl)piperazin-1-yl]-2-(pyridin-3-yl)thiazolo[5,4-d]pyrimidine], the inhibition (commonly the drop in the measured response relative to a control, in per cent) at 10 µM (10 μM compound, read-out: % Inhibition of substrate binding) is 51%. The IC50 (in general, the concentration that inhibits the measured activity by half) (stated for the 8 kinases of Table 1) was less than 10 µM.

These data come from patent US9301961B2, “Autoimmune and inflammatory disorder therapy” (Katholieke Universiteit Leuven, K.U. Leuven R&D, priority 2011, dated 2016).
